Results reported in patent US20190054186A1, “Magnetic Nanoparticle-Polymer Complexes and uses Thereof” (The University of North Carolina at Chapel Hill, priority 2016, published 2019).

What was measured:
[1] = tested on: lysosomes of MDA-MB-231, BT474 and MCF10A cells; assay: Lysosomal membrane permeabilization, acridine orange assay; type: cell-based, human; details: positive control, 150 μM, three hours, no field
Protocol: MDA-MB-231, BT474 and MCF10A cells were seeded at 1×10^5 cells/well in 8-well Lab-Tek II Chamber slides. Cells were allowed to adhere for several days and were treated with PAA-P85-MNPs at a concentration of 0.1 mg/mL. After 24 h, the cells were washed and then exposed to an AC magnetic field (50 Hz, 50 kA/m) using the pulsed exposure regime for a total of 30 min. Three hours post exposure, cells were treated for 15 min with 10 μg/mL acridine orange stain. The cells were washed 3× with PBS and kept in complete media for imaging. Positive control cells were treated with 150 μM hydrogen peroxide for 3 h followed by thorough washing and staining with acridine orange. Live cell images were acquired using a Zeiss CLSM 710 Spectral Confocal Laser Scanning Microscope with the 63×/1.4 Oil Plan Apo lens.

[2] = tested on: actin cytoskeleton of MDA-MB-231, BT474 and MCF10A cells; assay: Actin cytoskeleton confocal imaging after pulsed AC magnetic field; type: cell-based, human; details: cancerous cells, CD alone (100 nM)
Protocol: For confocal studies, MDA-MB-231, BT474 and MCF10A cells were plated on Lab-Tek II Chamber slides at a concentration of 1×10^5 cells/well and allowed to grow overnight. The cells were then treated with 0.1 mg/mL Alexa Fluor® 647-PAA-P85-MNP for 24 h followed by thorough washing with acid saline and replacement with complete media. The cells were incubated with 100 nM CD for 1 h to enact cytoskeletal damage in a nonlethal capacity. After washing, the cells were exposed to the pulsed AC magnetic field (50 Hz, 50 kA/m) (10 min on, 5 min off, total exposure 30 min). Appropriate controls included cells not exposed to the magnetic field and untreated cells. Cells were then incubated at 37° C. for 24 h, fixed using 4% paraformaldehyde and permeabilized using 0.5% Triton-X 100. Fixed cells were stained with ActinGreen 488 (Life Technologies, Carlsbad, Calif.), a phalloidin-based actin stain and Hoechst 33342. Images were acquired using a Zeiss CLSM 710 Spectral Confocal Laser Scanning Microscope with the 63×/1.4 Oil Plan Apo lens.

Row | SMILES | lysosomal membrane permeabilization (acridine orange) [1] | actin cytoskeleton structure [2]
1 | OO [hydrogen peroxide] | loss of punctuate red fluorescence | –
2 | C=C1[C@@H](C)[C@H]2[C@H](Cc3ccccc3)NC(=O)[C@]23[C@H](OC(C)=O)/C=C/[C@@](C)(O)C(=O)[C@@H](C)C/C=C/[C@H]3[C@@H]1O [CD, Cytochalasin D] | – | No significant differences in the cytoskeleton structure
